# Data: patent US11040106B2, “Conjugates of kinase inhibitors and cyanine dyes” (priority 2018, dated 2021)
# “Also recorded” adds a separate entry of the source.
# Key:
# U87-MG cells = experiment: Cytotoxicity (cell viability) on U87-MG cells; format: cell-based; details: U87-MG cells (glioblastoma)
# [1] = test system: MDA-MB-231 “triple negative” breast cancer cells; experiment: Cytotoxicity (cell viability) on MDA-MB-231 cells; format: cell-based; details: MDA-MB-231 (breast cancer cells)
# HSA = HSA (Homo sapiens, UniProt P02768); experiment: Covalent binding / reaction of cyanines with HSA (LC/MS, ESI MS, NIR-fluorescent gel); details: HEPES buffer pH 7.4, 37° C.
# HSA, sequence (P02768 25-609): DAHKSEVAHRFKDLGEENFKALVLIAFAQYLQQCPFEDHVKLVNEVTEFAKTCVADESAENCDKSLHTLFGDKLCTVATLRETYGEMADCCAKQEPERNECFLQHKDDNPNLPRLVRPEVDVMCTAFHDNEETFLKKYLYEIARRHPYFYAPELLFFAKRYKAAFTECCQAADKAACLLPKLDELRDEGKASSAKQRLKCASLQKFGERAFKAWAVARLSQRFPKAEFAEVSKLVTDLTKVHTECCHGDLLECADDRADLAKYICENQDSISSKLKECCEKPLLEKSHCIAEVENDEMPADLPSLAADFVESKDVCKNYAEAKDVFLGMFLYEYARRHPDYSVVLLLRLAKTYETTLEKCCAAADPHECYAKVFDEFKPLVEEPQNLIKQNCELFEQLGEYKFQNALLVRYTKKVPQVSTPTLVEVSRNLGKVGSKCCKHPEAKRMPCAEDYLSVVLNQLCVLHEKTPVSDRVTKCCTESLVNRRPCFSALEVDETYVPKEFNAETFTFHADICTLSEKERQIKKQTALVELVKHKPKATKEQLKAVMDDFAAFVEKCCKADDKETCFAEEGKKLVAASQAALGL
# Description: FIGS. 33A to 33D show kinetics of a, 1, c, 4, d, 5; e, 6 in 1 M HEPES buffer pH 7.4. […] The kinetics was examined on C, 18 column using Agilent 1200 series LC/MS at 600 nm.
# FIGS. 34A and 34B show mass spectra of a, free HSA and b, 1 bound to HSA. HSA: 1 (2.5:1); buffer 1 M HEPES.
# In a control experiment, human serum albumin (HSA) was reacted with 2.5 equivalents of 1-Cl at 37° C. in 1 M HEPES buffer. This 1-Cl:albumin molar ratio was selected because it is approximately that used in cell culture experiments to probe uptake of this dye.
# To test this assertion the experimental design was modified in the following way.
# [2] = test system: U87-MG glioblastoma cells; experiment: Organelle localization of the fluors (confocal imaging); format: cell-based, human; details: 37° C., DMEM/F12 with 10% FBS pH 7.4
compound,measurement,setting,value
CC(=O)c1c(C)c2cnc(Nc3ccc(N4CCN(C(=O)CCCCCN5C(=CC=C6CCCC(C=CC7=[N+](CCCCS(=O)(=O)[O-])c8ccccc8C7(C)C)=C6Cl)C(C)(C)c6ccccc65)CC4)cn3)nc2n(C2CCCC2)c1=O [Compound 3b],"cytotoxicity compared with parent dye, parent kinase inhibitor (and their mixture)",U87-MG cells,more toxic than b or 3
CN(C)C(=O)c1cc2cnc(Nc3ccc(N4CCN(C(=O)CCCCCN5/C(=C/C=C6\CCCC(/C=C/C7=[N+](CCCCCC(=O)[O-])c8ccccc8C7(C)C)=C6Cl)C(C)(C)c6ccccc65)CC4)cn3)nc2n1C1CCCC1 [Compound 1c],"cytotoxicity compared with parent dye, parent kinase inhibitor (and their mixture)",[1],"more found to be toxic than individual 1, c or a combination of 1+c; also recorded: significantly more toxic than the parent dye, the parent kinase inhibitor, or a mixture of the dye and kinase inhibitor"
CC1(C)C(/C=C/C2=C(c3ccccc3)C(=C/C=C3/N(CCCCCC(=O)O)c4ccccc4C3(C)C)/CCC2)=[N+](CCCCCC(=O)[O-])c2ccccc21 [Compound 6],covalent binding / reaction with HSA,HSA; listed as 1-Ph,do not react with HSA
CC(Oc1cc(-c2cnn(C3CCN(C(=O)CCCCCN4C(=CC=C5CCCC(C=CC6=[N+](CCCCCC(=O)[O-])c7ccccc7C6(C)C)=C5Cl)C(C)(C)c5ccccc54)CC3)c2)cnc1N)c1c(Cl)ccc(F)c1Cl (stereo not shown) [Compound 1d],"cytotoxicity compared with parent dye, parent kinase inhibitor (and their mixture)",[1],"more found to be toxic than individual 1, d or a combination of 1+d; also recorded: significantly more toxic than the parent dye, the parent kinase inhibitor, or a mixture of the dye and kinase inhibitor"
Indocyanine green [ICG],localization after time (h) 0.5,[2]; 0.5 h,golgi and ER
same,localization after time (h) 24,[2]; 24 h,golgi and lysosome
CC1=C(/C=C/C2=[N+](CCCCCC(=O)[O-])c3ccccc3C2(C)C)CCC/C1=C\C=C1\N(CCCCCC(=O)O)c2ccccc2C1(C)C [Compound 5],covalent binding / reaction with HSA,HSA,did not bind
same,covalent binding / reaction with HSA,HSA; listed as 1-Me,do not react with HSA
CC1(C)C(/C=C/C2=CC(=C/C=C3/N(CCCCCC(=O)O)c4ccccc4C3(C)C)/CCC2)=[N+](CCCCCC(=O)[O-])c2ccccc21 [Compound 4],covalent binding / reaction with HSA,HSA,did not bind
same,covalent binding / reaction with HSA,HSA; listed as 1-H,do not react with HSA
